Data from patent US9624201B2, “Inhibitors of bruton's tyrosine kinase” (Hoffmann-La Roche Inc., priority 2013, dated 2017).

What follows are compounds tested against Bruton's Tyrosine Kinase (inactivated state) (Homo sapiens (Human), UniProt Q06187) (assay: Bruton's Tyrosine Kinase (BTK) Inhibition TR-FRET (Time Resolved FRET) competition assay). Conditions: inactivated state of BTK; Kinase Tracer 178; incubated 18-24 h at 14° C.
Format: binding
Description: This BTK competition assay measures compound potency (IC50) for the inactivated state of Bruton's Tyrosine Kinase using FRET (Forster/Flouresence Resonance Energy Transfer) technology. The BTK-Eu complex was incubated on ice one hour prior to use at a starting concentration of 50 nM BTK-Bioease™: 10 nM Eu-streptavidin (Perkin-Elmer Catalog# AD0062). The assay buffer consisted of 20 mM HEPES (pH 7.15), 0.1 mM DTT, 10 mM MgCl2, 0.5 mg/ml BSA with 3% Kinase Stabilizer (Fremont Biosolutions, Catalog # STB-K02). After 1 h, the reaction mixture from above was diluted 10 fold in assay buffer to make 5 nM BTK: 1 nM Eu-Streptavidin complex (donor fluorophore). 18 μl of a mixture of 0.11 nM BTK-Eu and 0.11 nM Kinase Tracer 178 (Invitrogen, Catalog # PV5593,) with BTK-Eu alone as no negative control, was then dispensed into 384-well flat bottom plates (Greiner, 784076). Compounds to be tested in assay were prepared as 10× concentrations and serial dilution in half-log increments was performed in DMSO so as to generate 10 point curves. To initiate the FRET reaction, compounds prepared as 10× stock in DMSO was added to the plates and the plates were incubated 18-24 h at 14° C.
After the incubation the plates were read on a BMG Pherastar Fluorescent plate reader (or equivalent) and used to measure the emission energy from the europium donor fluorophore (620 nm emission) and the FRET (665 nm emission). The negative control well values were averaged to obtain the mean minimum. The positive “no inhibitor” control wells were averaged to obtain the mean maximum. Percent of maximal FRET was calculated using following equation: % max FRET=100×[(FSRcmpd−FSRmean min)/(FSRmean max−FSRmean min)] where FSR=FRET Signal ratio. % Max FRET curves were plotted in Activity Base (Excel) and the IC50(%), hill slope, z′ and % CV were determined. The mean IC50 and standard deviation will be derived from duplicate curves (singlet inhibition curves from two independent dilutions) using Microsoft Excel.

Bruton's Tyrosine Kinase (inactivated state), sequence (Q06187 whole entry): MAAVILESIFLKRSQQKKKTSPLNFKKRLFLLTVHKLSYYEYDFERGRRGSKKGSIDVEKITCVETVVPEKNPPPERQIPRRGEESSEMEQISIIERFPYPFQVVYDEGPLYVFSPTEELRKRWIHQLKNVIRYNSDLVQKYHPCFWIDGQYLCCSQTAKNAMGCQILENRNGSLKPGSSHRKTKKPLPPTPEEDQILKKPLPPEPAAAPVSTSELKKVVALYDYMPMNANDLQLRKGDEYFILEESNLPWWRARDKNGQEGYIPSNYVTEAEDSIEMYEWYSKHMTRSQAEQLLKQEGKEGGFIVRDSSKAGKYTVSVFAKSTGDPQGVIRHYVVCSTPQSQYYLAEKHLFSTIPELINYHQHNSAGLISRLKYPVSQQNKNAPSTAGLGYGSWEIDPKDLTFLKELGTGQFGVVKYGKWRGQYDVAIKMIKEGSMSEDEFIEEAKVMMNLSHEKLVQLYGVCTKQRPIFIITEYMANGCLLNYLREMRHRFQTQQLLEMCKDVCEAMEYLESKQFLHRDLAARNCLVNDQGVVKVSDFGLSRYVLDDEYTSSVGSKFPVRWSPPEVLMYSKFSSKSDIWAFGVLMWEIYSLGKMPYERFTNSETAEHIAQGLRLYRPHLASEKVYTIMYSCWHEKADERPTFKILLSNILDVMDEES

Row | Compound | IC50 [µM]
1 | Cc1cc(Oc2cccc(F)c2F)ccc1-n1ncc(C(=O)c2cc3c(Br)cccc3[nH]2)c1N [Compound 1, {5-Amino-1-[4-(2,3-difluoro-phenoxy)-2-methyl-phenyl]-1H-pyrazol-4-yl}-(4-bromo-1H-indol-2-yl)-methanone] | 0.0615
2 | Cc1cc(Oc2cccc(F)c2F)ccc1-n1ncc(C(=O)c2cc3c(-c4ccccc4)cccc3[nH]2)c1N [Compound 2, {5-Amino-1-[4-(2,3-difluoro-phenoxy)-2-methyl-phenyl]-1H-pyrazol-4-yl}-(4-phenyl-1H-indol-2-yl)-methanone] | 0.0851
3 | Cc1cc(Oc2cccc(F)c2F)ccc1-n1ncc(C(=O)c2cc3c(-c4ccsc4)cccc3[nH]2)c1N [Compound 3, {5-Amino-1-[4-(2,3-difluoro-phenoxy)-2-methyl-phenyl]-1H-pyrazol-4-yl}-(4-thiophen-3-yl-1H-indol-2-yl)-methanone] | 0.106
4 | Cc1cc(Oc2cccc(F)c2F)ccc1-n1ncc(C(=O)c2cc3c(-n4cccn4)cccc3[nH]2)c1N [Compound 4, {5-Amino-1-[4-(2,3-difluoro-phenoxy)-2-methyl-phenyl]-1H-pyrazol-4-yl}-(4-pyrazol-1-yl-1H-indol-2-yl)-methanone] | 0.0208
5 | Cc1cc(Oc2cccc(F)c2F)ccc1-n1ncc(C(=O)c2cc3c(-c4cccs4)cccc3[nH]2)c1N [Compound 5, {5-Amino-1-[4-(2,3-difluoro-phenoxy)-2-methyl-phenyl]-1H-pyrazol-4-yl}-(4-thiophen-2-yl-1H-indol-2-yl)-methanone] | 0.213
6 | Cc1cc(Oc2cccc(F)c2F)ccc1-n1ncc(C(=O)c2cc3c(C(=O)N4CCOCC4)cccc3[nH]2)c1N [Compound 6, {5-Amino-1-[4-(2,3-difluoro-phenoxy)-2-methyl-phenyl]-1H-pyrazol-4-yl}-[4-(morpholine-4-carbonyl)-1H-indol-2-yl]-methanone] | 0.0119
7 | Cc1cc(Oc2cccc(F)c2F)ccc1-n1ncc(C(=O)c2cc3c(-c4ccccn4)cccc3[nH]2)c1N [Compound 8, {5-Amino-1-[4-(2,3-difluoro-phenoxy)-2-methyl-phenyl]-1H-pyrazol-4-yl}-(4-pyridin-2-yl-1H-indol-2-yl)-methanone] | 0.00615
8 | Cc1cc(Oc2cccc(F)c2F)ccc1-n1ncc(C(=O)c2cc3c(Cc4ccccc4)cccc3[nH]2)c1N [Compound 9, {5-Amino-1-[4-(2,3-difluoro-phenoxy)-2-methyl-phenyl]-1H-pyrazol-4-yl}-(4-benzyl-1H-indol-2-yl)-methanone] | 0.0331
9 | Cc1cc(Oc2cccc(F)c2F)ccc1-n1ncc(C(=O)c2cc3c(-c4cn[nH]c4)cccc3[nH]2)c1N [Compound 10, {5-Amino-1-[4-(2,3-difluoro-phenoxy)-2-methyl-phenyl]-1H-pyrazol-4-yl}-[4-(1H-pyrazol-4-yl)-1H-indol-2-yl]-methanone] | 0.00421
10 | Cc1cc(Oc2cccc(F)c2F)ccc1-n1ncc(C(=O)c2cc3c(-c4cccc(C#N)c4)cccc3[nH]2)c1N [Compound 11, 3-(2-{5-Amino-1-[4-(2,3-difluoro-phenoxy)-2-methyl-phenyl]-1H-pyrazole-4-carbonyl}-1H-indol-4-yl)-benzonitrile] | 0.0591
11 | Cc1cc(Oc2cccc(F)c2F)ccc1-n1ncc(C(=O)c2cc3c(-c4cccc(Cl)c4)cccc3[nH]2)c1N [Compound 12, {5-Amino-1-[4-(2,3-difluoro-phenoxy)-2-methyl-phenyl]-1H-pyrazol-4-yl}-[4-(3-chloro-phenyl)-1H-indol-2-yl]-methanone] | 0.201
12 | Cc1cc(Oc2cccc(F)c2F)ccc1-n1ncc(C(=O)c2cc3c(Cc4cccc(C#N)c4)cccc3[nH]2)c1N [Compound 13, 3-(2-{5-Amino-1-[4-(2,3-difluoro-phenoxy)-2-methyl-phenyl]-1H-pyrazole-4-carbonyl}-1H-indol-4-ylmethyl)-benzonitrile] | 0.0295
13 | Cc1cc(Oc2cccc(C#N)c2)ccc1-n1ncc(C(=O)c2cc3c(-c4cn[nH]c4)cccc3[nH]2)c1N [Compound 14, 3-(4-{5-Amino-4-[4-(1H-pyrazol-4-yl)-1H-indole-2-carbonyl]-pyrazol-1-yl}-3-methyl-phenoxy)-benzonitrile] | 0.00838
14 | Cc1cc(Oc2cccc(C#N)c2)ccc1-n1ncc(C(=O)c2cc3c(C(=O)N4CCOCC4)cccc3[nH]2)c1N [Compound 15, 3-(4-{5-Amino-4-[4-(morpholine-4-carbonyl)-1H-indole-2-carbonyl]-pyrazol-1-yl}-3-methyl-phenoxy)-benzonitrile] | 0.0936
15 | Cc1cc(Oc2cccc(C#N)c2)ccc1-n1ncc(C(=O)c2cc3c(C(=O)N4CCN(C)CC4)cccc3[nH]2)c1N [Compound 16, 3-(4-{5-Amino-4-[4-(4-methyl-piperazine-1-carbonyl)-1H-indole-2-carbonyl]-pyrazol-1-yl}-3-methyl-phenoxy)-benzonitrile] | 0.0391
16 | COc1cccc(Cc2cccc3[nH]c(C(=O)c4cnn(-c5ccc(Oc6cccc(C#N)c6)cc5C)c4N)cc23)c1 [Compound 17, 3-(4-{5-Amino-4-[4-(3-methoxy-benzyl)-1H-indole-2-carbonyl]-pyrazol-1-yl}-3-methyl-phenoxy)-benzonitrile] | 0.0211
17 | Cc1cc(Oc2cccc(C#N)c2)ccc1-n1ncc(C(=O)c2cc3c(CC#N)cccc3[nH]2)c1N [Compound 20, 3-{4-[5-Amino-4-(4-cyanomethyl-1H-indole-2-carbonyl)-pyrazol-1-yl]-3-methyl-phenoxy}-benzonitrile] | 0.00845
18 | CNC(=O)c1cccc2[nH]c(C(=O)c3cnn(-c4ccc(Oc5cccc(C#N)c5)cc4C)c3N)cc12 [Compound 21, 2-{5-Amino-1-[4-(3-cyano-phenoxy)-2-methyl-phenyl]-1H-pyrazole-4-carbonyl}-1H-indole-4-carboxylic acid methylamide] | 0.013
19 | {5-Amino-1-[4-(2,3-difluoro-phenoxy)-2-methyl-phenyl]-1H-pyrazol-4-yl}-[4-(1-methyl-1H-pyrazol-4-yl)-1H-indol-2-yl]-methanone [Compound 7] | 0.0653
